Measurements published in patent publication US6462205B1, “Method of preparing benzofurandione oxime derivatives” (Bayer Aktiengesellscahft, priority 1999, dated 2002).
Where two headings read alike, the source gives them in different places.

Assay: log p of the isomers of 3-methoximino-2-oxo-2,3-dihydrobenzofuran
Format: physicochemical
Conditions: product of Example 5, value per isomer

Structure (SMILES)	logP (read-out: log p)	logP
CON=C1C(=O)Oc2ccccc21 (single isomer, unassigned; isomer 3) [E isomer, 3-Methoximino-2-oxo-2,3-dihydrobenzofuran]	2.2	–
CON=C1C(=O)Oc2ccccc21 (single isomer, unassigned; isomer 3) [Z isomer, 3-Methoximino-2-oxo-2,3-dihydrobenzofuran]	–	2.14
